For data set [1], the target named is T1, ATM protein immunoprecipitated from HeLa cell nuclear extract (Homo sapiens, UniProt Q13315).
T1 construct: ATM protein was immunoprecipitated from HeLa cell nuclear extract; endogenous in cells; host or cells: HeLa cell nuclear extract (immunoprecipitate)
Put plainly: ATM inhibition assay (GSTp53N66 serine 15 phosphorylation, chemiluminescence). As to conditions: concentrations between 100 and 1 μM. It counts as biochemical. As to the method:
In order to assess the inhibitory action of the compounds against ATM in vitro, the following assay was used to determine IC50 values.
ATM protein was immunoprecipitated from HeLa cell nuclear extract using rabbit polyclonal antisera raised to the C-terminal ˜500 amino-acid residues of the human ATM protein. […] 10 μl of immunoprecipitated ATM in Buffer C (50 mM Hepes, pH 7.4, 6 mM MgCl2, 150 mM NaCl, 0.1 mM sodium orthovanadate, 4 mM MnCl2, 0.1 mM dithiothreitol, 10% glycerol) was added to 32.5 μl of buffer C containing 1 μg of the ATM substrate GSTp53N66 in a V-bottomed 96 well polypropylene plate. The GSTp53N66 substrate is the amino terminal 66 amino acid residues of human wild type p53 fused to glutathione S-transferase. […] Varying concentrations of inhibitor were then added. […] After 10 minutes of incubation at 37° C., the reactions were initiated by the addition of 5 μl of 50 μM Na-ATP. After 1 h with shaking at 37° C., 150 μl of phosphate buffered saline (PBS) was added to the reaction and the plate centrifuged at 1500 rpm for 10 minutes. 5 μl of the reaction was then transferred to a 96 well opaque white plate containing 45 μl of PBS to allow the GSTp53N66 substrate to bind to the plate wells. The plate was covered and incubated at room temperature for 1 h with shaking before discarding the contents. The plate wells were washed twice by the addition of PBS prior to the addition of 3% (w/v) bovine serum albumin (BSA) in PBS. The plate was incubated at room temperature for 1 h with shaking before discarding the contents and washing twice with PBS. To the wells, 50 μl of a 1:10, 000 dilution of primary phosphoserine-15 antibody (Cell Signaling Technology, #9284L) in 3% BSA/PBS was added to detect the phosphorylation event on the serine 15 residue of p53 elicited by the ATM kinase. […] The wells were then washed four times with PBS before the addition of chemiluminescence reagent (NEN Renaissance, NEL105). The plate was then shaken briefly, covered with a transparent plate seal and transferred to a TopCount NXT for chemiluminescent counting. Counts per second, following a one second counting time, were recorded for each reaction. The inhibition of ATM activity by compounds was calculated as described above for the DNA-PK assay.
(§1) The selectivity was determined by the following equation: […]

The target of data set [2] is T2, Baculoviral recombinant GST-fused PI 3-kinase (p110α/p85α) (Homo sapiens, UniProt P42336).
T2 construct: GST; made in house; host or cells: Sf9 insect cells (baculovirus)
T2 sequence (P42336 whole entry, species assumed, the tested form may be a part): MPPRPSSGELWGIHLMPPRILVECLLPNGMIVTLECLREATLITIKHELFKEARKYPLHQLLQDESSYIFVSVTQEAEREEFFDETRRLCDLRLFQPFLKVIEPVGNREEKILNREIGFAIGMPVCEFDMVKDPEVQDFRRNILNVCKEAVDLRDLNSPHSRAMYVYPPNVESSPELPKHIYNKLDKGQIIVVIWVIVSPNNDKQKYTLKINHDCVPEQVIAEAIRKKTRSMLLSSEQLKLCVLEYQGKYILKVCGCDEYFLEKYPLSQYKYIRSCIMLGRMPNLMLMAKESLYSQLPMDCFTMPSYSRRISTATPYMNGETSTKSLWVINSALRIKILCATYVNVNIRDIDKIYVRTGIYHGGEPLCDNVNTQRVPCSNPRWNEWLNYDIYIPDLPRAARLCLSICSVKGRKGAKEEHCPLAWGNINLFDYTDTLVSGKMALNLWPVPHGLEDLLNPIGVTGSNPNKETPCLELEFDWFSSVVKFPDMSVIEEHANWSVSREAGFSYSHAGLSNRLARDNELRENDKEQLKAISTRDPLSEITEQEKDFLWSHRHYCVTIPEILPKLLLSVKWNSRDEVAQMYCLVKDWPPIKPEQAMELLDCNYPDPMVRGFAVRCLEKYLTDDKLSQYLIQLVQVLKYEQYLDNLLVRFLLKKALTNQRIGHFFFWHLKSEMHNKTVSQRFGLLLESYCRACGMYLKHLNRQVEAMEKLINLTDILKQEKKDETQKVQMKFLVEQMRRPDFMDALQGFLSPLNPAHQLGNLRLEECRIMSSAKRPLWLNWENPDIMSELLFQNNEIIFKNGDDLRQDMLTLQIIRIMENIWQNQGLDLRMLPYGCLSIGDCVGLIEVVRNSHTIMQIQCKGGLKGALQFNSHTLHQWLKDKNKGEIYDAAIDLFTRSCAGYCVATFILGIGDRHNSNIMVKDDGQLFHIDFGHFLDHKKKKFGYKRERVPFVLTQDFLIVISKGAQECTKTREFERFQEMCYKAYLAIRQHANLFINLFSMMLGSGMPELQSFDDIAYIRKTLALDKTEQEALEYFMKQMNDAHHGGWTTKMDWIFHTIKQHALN
T2 sequence (P27986 whole entry partner, species assumed, the tested form may be a part): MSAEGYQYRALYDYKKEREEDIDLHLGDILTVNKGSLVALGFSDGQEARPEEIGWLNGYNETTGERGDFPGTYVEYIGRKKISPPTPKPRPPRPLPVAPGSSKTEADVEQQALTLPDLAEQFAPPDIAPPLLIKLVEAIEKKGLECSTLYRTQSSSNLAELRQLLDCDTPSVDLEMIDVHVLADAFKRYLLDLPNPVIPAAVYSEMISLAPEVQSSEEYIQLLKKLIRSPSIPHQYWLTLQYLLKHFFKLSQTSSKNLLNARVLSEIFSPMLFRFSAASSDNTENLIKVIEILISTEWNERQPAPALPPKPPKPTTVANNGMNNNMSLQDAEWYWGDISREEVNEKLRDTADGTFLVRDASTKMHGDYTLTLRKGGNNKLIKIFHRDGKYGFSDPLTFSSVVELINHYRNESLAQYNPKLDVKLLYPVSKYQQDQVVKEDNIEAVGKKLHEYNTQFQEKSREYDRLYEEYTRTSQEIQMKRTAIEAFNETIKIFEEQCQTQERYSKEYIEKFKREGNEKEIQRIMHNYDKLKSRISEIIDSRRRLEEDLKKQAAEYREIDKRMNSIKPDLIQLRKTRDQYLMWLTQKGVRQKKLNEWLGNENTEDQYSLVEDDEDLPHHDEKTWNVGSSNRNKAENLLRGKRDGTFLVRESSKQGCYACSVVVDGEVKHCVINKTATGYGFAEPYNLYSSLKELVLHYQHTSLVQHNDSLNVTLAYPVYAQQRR
Kind of data set: PI 3-kinase inhibition assay. Type of data set: biochemical. As to the method:
In order to assess the inhibitory action of the compounds against PI 3-kinase in vitro, the following assay was used to determine IC50 values.
PI 3-kinase (1 μl) was diluted in reaction buffer (89 μl of 50 mM Hepes pH 7.5, 150 mM NaCl, 0.1 mM Sodium Orthovanadate, containing 20 μg of phosphatidylinositol) and varying concentrations of inhibitor compound added. […] Reactions were incubated for a further 20 minutes at 37° C., before quenching with the addition of 400 μl of chloroform/methanol (1:1). Reactions were acidified by the addition of 200 μl of 1M HCl, before separation of the organic and aqueous phases by centrifugation at 10,000 g for 30 seconds. The organic phase was transferred to a fresh tube and washed twice with 150 μl of 1M hydrochloric acid/methanol (1:1), discarding the aqueous phase. The washed reaction product was then placed in a white 96-well plate with 100 μl of scintillation fluid and transferred to a TopCount NXT for scintillation counting. Counts per minute, following a one minute counting time, were recorded for each reaction. The inhibition of PI 3-kinase activity by compounds was calculated as described above for the DNA-PK assay.
as §1

In data set [3] the target is T3, Mammalian DNA-PK, isolated from Hela cell nuclear extract (Homo sapiens, UniProt P78527).
T3 construct: Mammalian DNA-PK, isolated from Hela cell nuclear extract; endogenous in cells; host or cells: HeLa cell nuclear extract
Put plainly: DNA-PK inhibition assay (33P-ATP, phosphocellulose filter, scintillation counting). Type of data set: biochemical. The note with it: for inhibition at 1 µM: read-out: inhibition of DNA-PK at 1 μM; for inhibition at 2 µM: read-out: inhibition of DNA-PK at 2 μM, single concentration 2 μM. As to the method:
In order to assess the inhibitory action of the compounds against DNA-PK in vitro, the following assay was used.
The total assay volume per well was 40 μl.
After 10 minutes of incubation at 30° C. the reactions were initiated by the addition of Na-ATP (50 μM final), ^33P-γATP and a 30mer double stranded DNA oligonucleotide (10 ng/μl) in a volume of 10 μl. Designated positive and negative reaction wells were done in combination with compound wells (unknowns) in order to calculate % enzyme activities. The plates were then shaken for 2 minutes and incubated at 30° C. for 45 minutes.
Following the incubation, the reactions were quenched by the addition of 50 μl 30% acetic acid to each well. The plates were then shaken for 5 minutes and the contents of each plate (80 μl from each well) transferred over to a 96 well Polyfiltronics filtration plate, containing P81-phosphocellulose membrane (TRADE MARK)(Whatman, UK). The solutions were vacuum pumped through the membrane and each well membrane washed four times using 300 μl of 15% acetic acid. The well membranes were then air dried and 20 μl of scintillant was added to each well.
The plates were transferred to a TopCount NXT (TRADE MARK) (Packard, UK) for scintillation counting. Values recorded are counts per minute (cpm) following a 1 minute counting time for each well.
The enzyme activity for each compound is then calculated using the following equation: […]
In Table 1 below, the results are IC50 values (the concentration at which 50% of the enzyme activity is inhibited). These are determined over a range of different concentrations, normally from 10 μM down to 0.01 μM. Such IC50 values are used as comparative values to identify increased compound potencies.

In a further data set the target is PI 3-kinase. The note with it: literature, stated the same as for DNA-PK; cited from earlier work.
Data set [4] has as its system mammalian cells in culture. The note with it: literature; cited from earlier work.

Like-named read-outs stand apart in the source and are kept apart here.

T1 sequence (Q13315 whole entry): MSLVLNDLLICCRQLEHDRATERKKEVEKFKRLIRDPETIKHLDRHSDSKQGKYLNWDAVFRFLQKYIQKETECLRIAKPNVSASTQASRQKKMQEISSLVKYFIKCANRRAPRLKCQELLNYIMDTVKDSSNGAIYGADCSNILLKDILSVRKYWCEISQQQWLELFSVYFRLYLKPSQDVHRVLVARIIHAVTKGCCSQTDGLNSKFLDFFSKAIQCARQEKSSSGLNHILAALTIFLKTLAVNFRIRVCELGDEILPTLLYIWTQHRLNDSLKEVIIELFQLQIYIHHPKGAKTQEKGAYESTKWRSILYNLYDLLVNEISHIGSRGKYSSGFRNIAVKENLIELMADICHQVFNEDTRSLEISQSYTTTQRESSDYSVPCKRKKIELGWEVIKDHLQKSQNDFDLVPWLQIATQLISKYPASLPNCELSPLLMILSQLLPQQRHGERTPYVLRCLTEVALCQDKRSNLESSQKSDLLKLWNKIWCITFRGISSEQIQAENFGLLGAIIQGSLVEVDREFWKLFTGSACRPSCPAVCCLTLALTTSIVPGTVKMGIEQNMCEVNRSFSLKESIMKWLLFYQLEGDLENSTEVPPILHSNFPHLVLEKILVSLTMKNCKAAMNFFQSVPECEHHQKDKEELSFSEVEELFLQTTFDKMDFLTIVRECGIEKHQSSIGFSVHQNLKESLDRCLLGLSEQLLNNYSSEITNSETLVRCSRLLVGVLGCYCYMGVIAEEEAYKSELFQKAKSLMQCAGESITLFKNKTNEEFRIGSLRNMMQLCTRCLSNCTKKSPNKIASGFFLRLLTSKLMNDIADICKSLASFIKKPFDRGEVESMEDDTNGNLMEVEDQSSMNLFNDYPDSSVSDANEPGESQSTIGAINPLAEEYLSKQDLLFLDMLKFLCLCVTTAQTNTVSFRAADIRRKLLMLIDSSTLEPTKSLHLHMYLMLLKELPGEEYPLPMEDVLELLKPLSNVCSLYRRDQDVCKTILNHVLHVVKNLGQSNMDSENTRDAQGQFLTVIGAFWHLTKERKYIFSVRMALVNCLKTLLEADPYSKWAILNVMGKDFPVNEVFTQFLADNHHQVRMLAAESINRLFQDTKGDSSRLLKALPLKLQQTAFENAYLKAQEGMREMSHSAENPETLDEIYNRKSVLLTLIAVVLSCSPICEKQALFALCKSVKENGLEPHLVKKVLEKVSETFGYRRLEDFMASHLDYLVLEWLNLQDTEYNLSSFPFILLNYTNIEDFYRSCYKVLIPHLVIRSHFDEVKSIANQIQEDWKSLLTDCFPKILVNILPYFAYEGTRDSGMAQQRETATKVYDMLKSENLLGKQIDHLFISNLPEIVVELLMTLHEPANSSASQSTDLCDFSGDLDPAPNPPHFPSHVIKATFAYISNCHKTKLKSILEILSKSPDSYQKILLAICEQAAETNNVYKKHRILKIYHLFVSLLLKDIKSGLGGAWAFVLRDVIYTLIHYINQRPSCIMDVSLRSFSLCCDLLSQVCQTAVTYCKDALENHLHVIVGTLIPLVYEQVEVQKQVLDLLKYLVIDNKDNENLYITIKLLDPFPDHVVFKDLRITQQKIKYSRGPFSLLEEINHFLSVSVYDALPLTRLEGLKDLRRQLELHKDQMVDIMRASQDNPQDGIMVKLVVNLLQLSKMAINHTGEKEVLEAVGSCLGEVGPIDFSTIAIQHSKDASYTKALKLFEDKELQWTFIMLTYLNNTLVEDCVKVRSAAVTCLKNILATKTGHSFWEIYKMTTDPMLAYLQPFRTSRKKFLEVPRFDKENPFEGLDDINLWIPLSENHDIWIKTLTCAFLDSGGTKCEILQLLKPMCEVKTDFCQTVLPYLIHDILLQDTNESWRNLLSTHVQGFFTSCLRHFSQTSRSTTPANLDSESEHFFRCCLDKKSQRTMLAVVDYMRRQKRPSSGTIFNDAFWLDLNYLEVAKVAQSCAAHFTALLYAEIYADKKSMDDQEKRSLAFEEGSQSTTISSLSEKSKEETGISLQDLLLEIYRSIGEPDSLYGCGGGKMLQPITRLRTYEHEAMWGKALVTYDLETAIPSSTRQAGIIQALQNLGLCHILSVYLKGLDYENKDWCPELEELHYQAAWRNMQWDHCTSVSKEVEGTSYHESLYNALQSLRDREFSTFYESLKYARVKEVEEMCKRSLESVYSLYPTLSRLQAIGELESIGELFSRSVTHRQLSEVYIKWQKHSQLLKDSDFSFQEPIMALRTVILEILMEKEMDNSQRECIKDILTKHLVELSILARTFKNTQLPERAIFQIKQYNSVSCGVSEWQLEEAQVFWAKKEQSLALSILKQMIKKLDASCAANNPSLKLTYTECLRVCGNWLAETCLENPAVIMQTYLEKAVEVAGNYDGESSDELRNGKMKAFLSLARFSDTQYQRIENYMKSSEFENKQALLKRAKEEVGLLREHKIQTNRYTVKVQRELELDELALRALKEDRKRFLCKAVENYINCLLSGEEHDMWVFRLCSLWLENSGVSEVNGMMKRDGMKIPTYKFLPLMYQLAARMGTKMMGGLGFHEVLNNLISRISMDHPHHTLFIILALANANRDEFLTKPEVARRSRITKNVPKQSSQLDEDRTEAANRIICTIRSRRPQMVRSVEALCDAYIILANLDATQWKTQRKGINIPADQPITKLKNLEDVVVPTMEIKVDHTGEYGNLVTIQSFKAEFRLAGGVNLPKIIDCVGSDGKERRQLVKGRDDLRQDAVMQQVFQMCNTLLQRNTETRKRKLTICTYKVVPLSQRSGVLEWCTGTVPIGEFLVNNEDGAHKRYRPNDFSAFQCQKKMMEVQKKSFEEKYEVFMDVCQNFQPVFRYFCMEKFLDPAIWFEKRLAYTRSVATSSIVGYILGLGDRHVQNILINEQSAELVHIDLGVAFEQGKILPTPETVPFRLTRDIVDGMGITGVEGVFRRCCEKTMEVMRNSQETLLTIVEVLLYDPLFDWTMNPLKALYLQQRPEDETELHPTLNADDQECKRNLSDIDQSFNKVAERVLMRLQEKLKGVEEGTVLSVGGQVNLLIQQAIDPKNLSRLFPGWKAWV

For orientation: IC50 means the midpoint of a concentration-inhibition curve. Usually melting point stands for the temperature of the solid-liquid transition. As for `O=c1cc(-c2ccccc2)sc(N2CCOCC2)c1` [Compound 1, 2-Morpholin-4-yl-6-phenyl-thiopyran-4-one], the melting point was 160 to 161 °C. Besides, the IC50 in data set [1] is > 100 µM. For the same molecule, in data set [2], the IC50 turned out to be 10 µM.
For the molecule `CC(C)(C)c1ccc(-c2cc(=O)cc(N3CCOCC3)s2)cc1` [Compound 2, 2-(4-tert-Butyl-phenyl)-6-morpholin-4-yl-thiopyran-4-one], the melting point was in the range of 172 to 173 °C. The IC50 in data set [1] is > 100 µM. The IC50 in data set [2] came out at 40 µM.
As for `COc1ccc(-c2cc(=O)cc(N3CCOCC3)s2)cc1` [Compound 3, 2-(4-Methoxy-phenyl)-6-morpholin-4-yl-thiopyran-4-one], the IC50 is > 100 µM in data set [1] and 8 µM in data set [2].
In the same order, the values of `O=c1cc(-c2ccc(Cl)cc2)sc(N2CCOCC2)c1` [Compound 4, 2-(4—Chloro-phenyl)-6-morpholin-4-yl-thiopyran-4-one] are > 100 µM and 5 µM.
Molecule `O=c1cc(-c2ccc(Br)cc2)sc(N2CCOCC2)c1` [Compound 5, 6-(4-Broinophenyl)-2-morpholin-4-yl-thiopyran-4-one] registered a melting point of 214 to 215 °C.
In the case of `O=c1cc(-c2cccc(Br)c2)sc(N2CCOCC2)c1` [Compound 6, 6-(3-Bromophenyl)-2-morpholin-4-yl-thiopyran-4-one], the melting point was in the range of 181 to 182 °C.
The inhibition is the change of the read-out against control, counted positive when it falls. As to `O=c1cc(-c2ccc(-c3cccc(O)c3)cc2)sc(N2CCOCC2)c1` [Compound 14], in data set [3], the IC50 is ≤ 2 µM and the inhibition at 2 µM is ≥ 50%. Further, the inhibition at 1 µM in data set [3] (single concentration 1 μM) was ≥ 10%.
For the molecule `O=c1cc(-c2cccc(-c3ccccc3-c3ccccc3)c2)sc(N2CCOCC2)c1` [Compound 30], in data set [3], the IC50 was ≤ 2 µM, the inhibition at 1 µM is ≥ 10% and the inhibition at 2 µM is ≥ 50%.
On to `CC(=O)Nc1cccc(-c2cccc(-c3cc(=O)cc(N4CCOCC4)s3)c2)c1` [Compound 31], for which the inhibition at 1 µM in data set [3] (single concentration 1 μM) was ≥ 10%. For the same molecule, the inhibition at 2 µM in data set [3] was ≥ 50%.
In the case of `CC(=O)c1cccc(-c2cccc(-c3cc(=O)cc(N4CCOCC4)s3)c2)c1` [Compound 33], in data set [3], the IC50 was ≤ 2 µM, the inhibition at 1 µM is ≥ 10% and the inhibition at 2 µM was ≥ 50%.
Take `O=c1cc(-c2cccc(-c3cccc(-c4ccccc4)c3)c2)sc(N2CCOCC2)c1` [Compound 35]: in data set [3], the concentration for half-maximal inhibition (IC50) was ≤ 2 µM, the inhibition at 1 µM was ≥ 10% and the inhibition at 2 µM was ≥ 50%.
On the same counts, the results for `O=c1cc(-c2cccc(-c3cccc(CO)c3)c2)sc(N2CCOCC2)c1` [Compound 40] are ≤ 2 µM, ≥ 10% and ≥ 50%.
Regarding `O=c1cc(-c2cccc(-c3ccc(CO)cc3)c2)sc(N2CCOCC2)c1` [Compound 41], in data set [3], the IC50 was ≤ 2 µM, the inhibition at 1 µM is ≥ 10% and the inhibition at 2 µM was ≥ 50%.
As to `O=c1cc(-c2cccc(-c3cccc(O)c3)c2)sc(N2CCOCC2)c1` [Compound 42], the inhibition at 1 µM in data set [3] (single concentration 1 μM) is ≥ 10%. Also, the inhibition at 2 µM in data set [3] is ≥ 50%.
In the case of `O=c1cc(-c2cccc(-c3ccc(O)cc3)c2)sc(N2CCOCC2)c1` [Compound 43], in data set [3], the IC50 was ≤ 2 µM and the inhibition at 2 µM is ≥ 50%. Besides, in data set [3] (single concentration 1 μM), the inhibition at 1 µM is ≥ 10%.
For the molecule `NCc1ccc(-c2cccc(-c3cc(=O)cc(N4CCOCC4)s3)c2)cc1` [Compound 46], in data set [3], the IC50 is ≤ 2 µM, the inhibition at 1 µM is ≥ 10% and the inhibition at 2 µM was ≥ 50%.
Regarding `Nc1ccc(-c2cccc(-c3cc(=O)cc(N4CCOCC4)s3)c2)cc1` [Compound 48], in data set [3], the IC50 is ≤ 2 µM and the inhibition at 2 µM was ≥ 50%. Moreover, the inhibition at 1 µM in data set [3] (single concentration 1 μM) is ≥ 10%.
With `Nc1cccc(-c2cccc(-c3cc(=O)cc(N4CCOCC4)s3)c2)c1` [Compound 49], in data set [3], the IC50 is ≤ 2 µM and the inhibition at 2 µM was ≥ 50%. Further, the inhibition at 1 µM in data set [3] (single concentration 1 μM) was ≥ 10%.
In the same order, the values of `CC(=O)Nc1ccccc1-c1cccc(-c2cc(=O)cc(N3CCOCC3)s2)c1` [Compound 51] are ≤ 2 µM, ≥ 50% and ≥ 10%.
On the same counts, the results for `O=c1cc(-c2ccc(-c3cccs3)cc2)sc(N2CCOCC2)c1` [Compound 57] are ≤ 2 µM, ≥ 50% and ≥ 10%.
`O=c1cc(-c2ccc(-c3cccc4ccccc34)cc2)sc(N2CCOCC2)c1` [Compound 59]: the inhibition at 1 µM in data set [3] (single concentration 1 μM) was ≥ 10%. For the same molecule, the inhibition at 2 µM in data set [3] is ≥ 50%.
`Cc1ccc(-c2cccc(-c3cc(=O)cc(N4CCOCC4)s3)c2)c2ccccc12` [Compound 63]: in data set [3], the IC50 is ≤ 2 µM and the inhibition at 2 µM is ≥ 50%. For the same molecule, the inhibition at 1 µM in data set [3] (single concentration 1 μM) is ≥ 10%.
On to `O=c1cc(-c2cccc(-c3csc4ccccc34)c2)sc(N2CCOCC2)c1` [Compound 64], for which, in data set [3], the IC50 was ≤ 2 µM and the inhibition at 2 µM is ≥ 50%. In addition, the inhibition at 1 µM in data set [3] (single concentration 1 μM) was ≥ 10%.
`O=c1cc(-c2cccc(-c3cccc4ccccc34)c2)sc(N2CCOCC2)c1` [Compound 69]: in data set [3], the IC50 is ≤ 2 µM and the inhibition at 2 µM is ≥ 50%. The inhibition at 1 µM in data set [3] (single concentration 1 μM) is ≥ 10%.
`O=Cc1sccc1-c1cccc(-c2cc(=O)cc(N3CCOCC3)s2)c1` [Compound 70]: in data set [3], the concentration for half-maximal inhibition (IC50) is ≤ 2 µM and the inhibition at 2 µM is ≥ 50%. Besides, the inhibition at 1 µM in data set [3] (single concentration 1 μM) was ≥ 10%.
`O=c1cc(N2CCOCC2)oc2c(-c3ccccc3)cccc12` [LY294002, reference compound]: the values for the IC50 (in data set [1]; on PI 3-kinase; in data set [3]) were > 100 µM, ~1 µM and 1.5 µM, respectively. In addition, in data set [4], the “sensitisation of cells to the effects of IR” value was “weakly sensitise cells to the effects of IR”.

Values taken from patent publication US7105518B2, “Thiopyrane-4-ones as DNA protein kinase inhibitors” (priority 2001, dated 2006).
